Activity calls are given as the source filed them. The rule behind the calls is not given here.
Key:
[1] = molecular target: T1, Janus Kinase (JAK) (Homo sapiens) (UniProt P52333+P23458+O60674+P29597); assay: Inhibition of JAK-mediated interferon-gamma-induced Stat1 phosphorylation in human U937 cells by Phospho-Flow cytometry at 20 uM; format: cell-based; conditions: U-937
[2] = molecular target: T1, Janus Kinase (JAK) (Homo sapiens); assay: Inhibition of JAK-mediated GM-CSF-induced Stat5 phosphorylation in human U937 cells by Phospho-Flow cytometry at 20 uM; format: cell-based; conditions: U-937
MAP kinase p38 = MAP kinase p38 (Homo sapiens, UniProt O15264+Q15759+Q16539+P53778); assay: Inhibition of anisomycin-induced p38 phosphorylation in human U937 cells by Phospho-Flow cytometry at 20 uM; format: cell-based; conditions: U-937
[3] = Inhibition of JAK-mediated IL6-induced Stat3 phosphorylation in BALB/c mouse CD4+ T cells by Phospho-Flow cytometry; format: cell-based; conditions: T-cell
[4] = Inhibition of JAK-mediated IL4-induced Stat6 phosphorylation in BALB/c mouse CD4+ T cells by Phospho-Flow cytometry; format: cell-based; conditions: T-cell
[5] = Inhibition of JAK-mediated IL10-induced Stat3 phosphorylation in BALB/c mouse CD11b-int macrophages by Phospho-Flow cytometry
[6] = Inhibition of JAK-mediated IL4-induced Stat6 phosphorylation in BALB/c mouse CD8+ T cells by Phospho-Flow cytometry; format: cell-based; conditions: T-cell
[7] = Inhibition of JAK-mediated IL6-induced Stat3 phosphorylation in BALB/c mouse B cells by Phospho-Flow cytometry; format: cell-based
[8] = Inhibition of JAK-mediated IL15-induced Stat5 phosphorylation in BALB/c mouse CD11b-hi neutrophils by Phospho-Flow cytometry
[9] = Inhibition of JAK-mediated interferon-gamma-induced Stat1 phosphorylation in BALB/c mouse CD11b-int macrophages by Phospho-Flow cytometry
[10] = Inhibition of JAK-mediated IL4-induced Stat5 phosphorylation in BALB/c mouse CD4+ T cells by Phospho-Flow cytometry; format: cell-based; conditions: T-cell
[11] = Inhibition of JAK-mediated IL10-induced Stat3 phosphorylation in BALB/c mouse CD8+ T cells by Phospho-Flow cytometry; format: cell-based; conditions: T-cell
[12] = Inhibition of JAK-mediated IL6-induced Stat1 phosphorylation in BALB/c mouse CD11b-hi neutrophils by Phospho-Flow cytometry
[13] = Inhibition of JAK-mediated interferon-gamma-induced Stat1 phosphorylation in BALB/c mouse CD11b-hi neutrophils by Phospho-Flow cytometry
[14] = Inhibition of JAK-mediated IL6-induced Stat3 phosphorylation in BALB/c mouse CD8+ T cells by Phospho-Flow cytometry; format: cell-based; conditions: T-cell
[15] = Inhibition of JAK-mediated IL6-induced Stat1 phosphorylation in BALB/c mouse B cells by Phospho-Flow cytometry; format: cell-based
[16] = Inhibition of JAK-mediated IL7-induced Stat5 phosphorylation in BALB/c mouse CD11b-int macrophages by Phospho-Flow cytometry
[17] = Inhibition of JAK-mediated interferon-gamma-induced Stat1 phosphorylation in BALB/c mouse B cells by Phospho-Flow cytometry; format: cell-based
[18] = Inhibition of JAK-mediated IL6-induced Stat1 phosphorylation in BALB/c mouse CD8+ T cells by Phospho-Flow cytometry; format: cell-based; conditions: T-cell
[19] = Inhibition of JAK-mediated IL10-induced Stat3 phosphorylation in BALB/c mouse CD4+ T cells by Phospho-Flow cytometry; format: cell-based; conditions: T-cell
[20] = Inhibition of JAK-mediated IL7-induced Stat5 phosphorylation in BALB/c mouse CD4+ T cells by Phospho-Flow cytometry; format: cell-based; conditions: T-cell
[21] = Inhibition of JAK-mediated IL15-induced Stat5 phosphorylation in BALB/c mouse CD8+ T cells by Phospho-Flow cytometry; format: cell-based; conditions: T-cell
[22] = Inhibition of JAK-mediated IL10-induced Stat3 phosphorylation in BALB/c mouse B cells by Phospho-Flow cytometry; format: cell-based
[23] = Inhibition of JAK-mediated IL15-induced Stat5 phosphorylation in BALB/c mouse CD11b-int macrophages by Phospho-Flow cytometry
[24] = Inhibition of JAK-mediated IL4-induced Stat5 phosphorylation in BALB/c mouse CD11b-int macrophages by Phospho-Flow cytometry
[25] = Inhibition of JAK-mediated IL4-induced Stat5 phosphorylation in BALB/c mouse B cells by Phospho-Flow cytometry; format: cell-based
[26] = Inhibition of JAK-mediated IL6-induced Stat1 phosphorylation in BALB/c mouse CD11b-int macrophages by Phospho-Flow cytometry
[27] = Inhibition of JAK-mediated IL15-induced Stat5 phosphorylation in BALB/c mouse CD4+ T cells by Phospho-Flow cytometry; format: cell-based; conditions: T-cell
[28] = Inhibition of JAK-mediated IL4-induced Stat5 phosphorylation in BALB/c mouse CD8+ T cells by Phospho-Flow cytometry; format: cell-based; conditions: T-cell
[29] = Inhibition of JAK-mediated IL6-induced Stat3 phosphorylation in BALB/c mouse CD11b-int macrophages by Phospho-Flow cytometry
[30] = Inhibition of JAK-mediated IL4-induced Stat6 phosphorylation in BALB/c mouse CD11b-int macrophages by Phospho-Flow cytometry
[31] = Inhibition of JAK-mediated IL7-induced Stat5 phosphorylation in BALB/c mouse CD8+ T cells by Phospho-Flow cytometry; format: cell-based; conditions: T-cell
[32] = Inhibition of JAK-mediated IL4-induced Stat5 phosphorylation in BALB/c mouse CD11b-hi neutrophils by Phospho-Flow cytometry
[33] = Inhibition of JAK-mediated IL6-induced Stat1 phosphorylation in BALB/c mouse CD4+ T cells by Phospho-Flow cytometry; format: cell-based; conditions: T-cell
[34] = Inhibition of JAK-mediated IL7-induced Stat5 phosphorylation in BALB/c mouse B cells by Phospho-Flow cytometry; format: cell-based
[35] = Inhibition of JAK-mediated IL7-induced Stat5 phosphorylation in BALB/c mouse CD11b-hi neutrophils by Phospho-Flow cytometry
[36] = Inhibition of JAK-mediated IL15-induced Stat5 phosphorylation in BALB/c mouse B cells by Phospho-Flow cytometry; format: cell-based
[37] = Inhibition of JAK-mediated interferon-gamma-induced Stat1 phosphorylation in BALB/c mouse CD4+ T cells by Phospho-Flow cytometry; format: cell-based; conditions: T-cell
[38] = Inhibition of JAK-mediated IL10-induced Stat3 phosphorylation in BALB/c mouse CD11b-hi neutrophils by Phospho-Flow cytometry
[39] = Inhibition of JAK-mediated IL6-induced Stat3 phosphorylation in BALB/c mouse CD11b-hi neutrophils by Phospho-Flow cytometry
[40] = molecular target: T1, Janus Kinase (JAK) (Homo sapiens); assay: Inhibition of JAK-mediated interferon-gamma/anisomycin-induced Stat1 phosphorylation in human U937 cells by Phospho-Flow cytometry; format: cell-based; conditions: U-937

SMILES: CO[C@@H]1[C@@H](OC(=O)c2ccc(C)[nH]2)[C@@H](O)[C@@H](Oc2ccc3c(O)c(NC(=O)c4c[nH]c(C(=O)Nc5c(O)c6ccc(O[C@H]7OC(C)(C)[C@H](OC)[C@@H](OC(=O)c8ccc(C)[nH]8)[C@H]7O)c(C)c6oc5=O)c4C)c(=O)oc3c2C)OC1(C)C
- inhibition [1]: inactive
- inhibition [2]: inactive
- inhibition (MAP kinase p38): inactive

SMILES: O=Nc1c(-c2c(O)[nH]c3ccccc23)[nH]c2ccccc12 [INDIRUBIN-3-MONOXIME]
- IC50 [3]: < 20 µM
- IC50 [4]: < 20 µM
- IC50 [5]: < 20 µM
- IC50 [6]: < 20 µM
- IC50 [7]: < 20 µM
- IC50 [8]: < 20 µM
- IC50 [9]: < 20 µM
- IC50 [10]: < 20 µM
- IC50 [11]: < 20 µM
- IC50 [12]: < 20 µM
- IC50 [13]: < 20 µM
- IC50 [14]: < 20 µM
- IC50 [15]: < 20 µM
- IC50 [16]: < 20 µM
- IC50 [17]: < 20 µM
- IC50 [18]: < 20 µM
- IC50 [19]: < 20 µM
- IC50 [20]: < 20 µM
- IC50 [21]: < 20 µM
- IC50 [22]: < 20 µM
- IC50 [23]: < 20 µM
- IC50 [24]: < 20 µM
- IC50 [25]: < 20 µM
- IC50 [26]: < 20 µM
- IC50 [27]: < 20 µM
- IC50 [28]: < 20 µM
- IC50 [29]: < 20 µM
- IC50 [30]: < 20 µM
- IC50 [31]: < 20 µM
- IC50 [32]: < 20 µM
- IC50 [33]: < 20 µM
- IC50 [34]: < 20 µM
- IC50 [35]: < 20 µM
- IC50 [36]: < 20 µM
- IC50 [37]: < 20 µM
- IC50 [38]: < 20 µM
- IC50 [39]: < 20 µM

SMILES: O=C1C=C2C(=CCOC2O)O1 (stereo not drawn)
- inhibition [1]: > 65%
- inhibition [2]: 25%
- inhibition (MAP kinase p38): 25%

SMILES: CC(C)=CC(=O)O[C@H]1[C@H]2[C@H](OC(=O)[C@H]2C)[C@H](O)[C@@H](C)[C@@H]2C=CC(=O)[C@]21C
- inhibition [1]: > 65%
- inhibition [2]: 25%
- inhibition (MAP kinase p38): 25%

SMILES: CC(=O)O[C@@H]1CO[C@H]2O[C@H]3[C@@H](C(C=O)=C[C@H](O)[C@@H]4C5=C(C(C)C)CC[C@]5(C)CC[C@@]34C)[C@@]2(O)C1=O
- inhibition [1]: > 65%
- inhibition [2]: Active
- inhibition (MAP kinase p38): 25%

SMILES: C/C=C/C1=C(Cl)C(=O)[C@H](Cl)[C@]1(O)C(=O)OC [CRYTOSPORIOPSIN]
- IC50 [3]: < 20 µM
- IC50 [4]: < 20 µM
- IC50 [5]: < 20 µM
- IC50 [6]: < 20 µM
- IC50 [7]: < 20 µM
- IC50 [8]: < 20 µM
- inhibition [1]: > 65%
- inhibition [2]: Active
- IC50 [9]: < 20 µM
- IC50 [10]: < 20 µM
- IC50 [11]: < 20 µM
- IC50 [12]: < 20 µM
- IC50 [13]: < 20 µM
- IC50 [14]: < 20 µM
- IC50 [15]: < 20 µM
- IC50 [16]: < 20 µM
- IC50 [17]: < 20 µM
- IC50 [18]: < 20 µM
- IC50 [20]: < 20 µM
- IC50 [21]: < 20 µM
- IC50 [22]: < 20 µM
- IC50 [23]: < 20 µM
- IC50 [24]: < 20 µM
- IC50 [26]: < 20 µM
- IC50 [27]: < 20 µM
- IC50 [28]: < 20 µM
- IC50 [29]: < 20 µM
- IC50 [30]: < 20 µM
- IC50 [31]: < 20 µM
- IC50 [32]: < 20 µM
- IC50 [34]: < 20 µM
- IC50 [35]: < 20 µM
- IC50 [36]: < 20 µM
- IC50 [38]: < 20 µM
- inhibition (MAP kinase p38): 25%
- IC50 [39]: < 20 µM

SMILES: C[S+]([O-])c1ccc(-c2nc(-c3ccc(F)cc3)c(-c3ccncc3)[nH]2)cc1 (stereo not drawn)
- Activity [40]: Active

SMILES: C=C1C(=O)O[C@@H]2C[C@@H](C)[C@@H]3C=CC(=O)[C@@]3(C)[C@@H](O)[C@H]12
- inhibition [1]: 25%
- inhibition [2]: 25%
- inhibition (MAP kinase p38): 25%

SMILES: C[C@H]1CC[C@@H]2[C@@H](C)[C@H]3[C@H](C[C@H]4[C@@H]5CC=C6C[C@@H](O[C@@H]7O[C@H](CO)[C@H](O)[C@H](O[C@@H]8O[C@H](CO)[C@@H](O)[C@H](O)[C@H]8O)[C@H]7O[C@H]7O[C@@H](C)[C@H](O)[C@@H](O)[C@H]7O)CC[C@]6(C)[C@H]5CC[C@]34C)N2C1
- inhibition [1]: > 65%
- inhibition [2]: 25%
- inhibition (MAP kinase p38): 25%

SMILES: CC(C)c1oc(=O)cc2c1[C@@H](O)[C@H]1OC(=O)[C@@]3(C)[C@@H](O)[C@H]4O[C@H]4[C@@]2(C)[C@@H]13
- inhibition [1]: inactive
- inhibition [2]: inactive
- inhibition (MAP kinase p38): > 65%

SMILES: CC1OC(CC(=O)O)CC2=C1C(=O)c1c(O)cccc1C2=O (stereo not drawn)
- inhibition [1]: > 65%
- inhibition [2]: 25%
- inhibition (MAP kinase p38): 25%

SMILES: CC[C@H]1CN2CCc3cc(OC)c(OC)cc3[C@@H]2C[C@@H]1C[C@H]1NCCc2c1[nH]c1ccc(O)cc21
- inhibition [1]: > 65%
- inhibition [2]: 25%
- inhibition (MAP kinase p38): 25%

SMILES: CC(C)(C)c1nc2c3ccc(F)cc3c3c(=O)[nH]ccc3c2[nH]1
- Activity [40]: Active
- IC50 [15]: < 20 µM
- IC50 [22]: > 20 µM

SMILES: C=C1C(=O)O[C@@H]2C[C@@]3(C)CCC[C@H](C)C3=C[C@H]12
- inhibition [1]: 25%
- inhibition [2]: 25%
- inhibition (MAP kinase p38): 25%

SMILES: CC(=O)c1c(O)c(C)c(O)c(Cc2c(O)c3c(c(C(=O)/C=C/c4ccccc4)c2O)OC(C)(C)C=C3)c1O
- inhibition [1]: > 65%
- inhibition [2]: 25%
- inhibition (MAP kinase p38): 25%

SMILES: CC1CC(C)(O)CC(C(O)CC2CC(=O)NC(=O)C2)C1=O (stereo not drawn)
- inhibition [1]: 25%
- inhibition [2]: 25%
- inhibition (MAP kinase p38): 25%

From ChEMBL document CHEMBL1212697, “High-content single-cell drug screening with phosphospecific flow cytometry” (Nat Chem Biol, 2008)
